The test system of one experiment is Phorbol Ester. Put plainly: Eurofins Diversity Panel. It is filed as binding. The conditions noted are these: mouse, Conc. 10 μM.
Another experiment has as its target Dopamine D2S (Homo sapiens, UniProt P14416). Put plainly: Eurofins Diversity Panel. It is filed as binding. The following applies: hum, Conc. 10 μM.
For another experiment, the target named is EPHA4 (Homo sapiens, UniProt P54764). Put plainly: KINOMEscan: EPHA4. It is filed as binding. The following applies: 1000 nM, read-out: Percent Control.
For the next experiment, the target named is ADCK3 (Homo sapiens, UniProt Q8NI60). Put plainly: KINOMEscan: ADCK3. It is filed as binding. The conditions noted are these: 1000 nM, read-out: Percent Control.
In a further experiment the target is SIK (Homo sapiens, UniProt P57059). Put plainly: KINOMEscan: SIK. The following applies: 100 nM, read-out: Percent Control. It is filed as binding.
The target of another experiment is CAMK1D (Homo sapiens, UniProt Q8IU85). Put plainly: KINOMEscan: CAMK1D. It is filed as binding. The following applies: 1000 nM, read-out: Percent Control.
Another experiment deals with CDK7 (Homo sapiens, UniProt P50613). Put plainly: KINOMEscan: CDK7. It is filed as binding. On the procedure:
The structure and synthesis of VIP152 were recently described by Lücking et al.. (Fig. 1A); however, the selectivity of the molecule in cellular systems has yet to be explored. […] We also performed this experiment at 1000 nM, where CDK9 was inhibited at 99%. […] We found a strong concordance between our data and those of Lücking when comparing the most inhibited kinases. Potential off-target effects of VIP152 were next tested in vitro at a concentration of 10 µM for off-target activity against a broad range of receptors, transporters, ion channels, and enzymes (n = 138) using the Eurofins Diversity Panel.
Kinomescan Kinase Profiling Assay
Kinomescan Assay was performed at DiscoverRX and described in Fabian, et al. 2005, Nat.
Biotechnol. In brief, kinases were produced and subsequently tagged with DNA for qPCR detection.
Streptavidin-coated magnetic beads were bound to biotinylated kinase ligands to serve as a solid support.
VIP152 was dissolved in DMSO and tested across a 10 serial threefold dilution set and compared to a test compound and a DMSO control. Kinases which were inhibited by VIP152 would not be bound to the solid-support resulting in decreased substrate for the qPCR reaction. Kinome map was produced via TreeSpot Analysis from DiscoverRX. […]
NanoBRETTM Target Engagement Assay Protocol […]
The cell and lipid:DNA […]
complex was dispensed into a sterile tissue culture dish and incubated for 22-24 hours. Test compounds were then delivered from the compound source plate to the wells of a 384-well white NBS plate by Echo 550. Cells with NanoBRET Tracer Reagent were then prepared by first removing media from dish of transfected HEK293 cells via aspiration, trypsinization, and allowing cells to dissociate from the dish. Trypsin was neutralized using medium containing serum and centrifuged at 200g for 5 minutes to pellet the cells. Cell density was then adjusted to 2E05 cells/mL in Opti-MEM without phenol red. Complete 20X NanoBRET Tracer Reagent was prepared with Tracer Dilution Buffer and dispensed at a ratio of 1:20 Reagent to cells in the tube. The cell

The next experiment has as its target T1, Adrenergic α2A (Homo sapiens, UniProt P08913).
T1 construct: purchased Eurofins
T1 sequence (P08913 1-465): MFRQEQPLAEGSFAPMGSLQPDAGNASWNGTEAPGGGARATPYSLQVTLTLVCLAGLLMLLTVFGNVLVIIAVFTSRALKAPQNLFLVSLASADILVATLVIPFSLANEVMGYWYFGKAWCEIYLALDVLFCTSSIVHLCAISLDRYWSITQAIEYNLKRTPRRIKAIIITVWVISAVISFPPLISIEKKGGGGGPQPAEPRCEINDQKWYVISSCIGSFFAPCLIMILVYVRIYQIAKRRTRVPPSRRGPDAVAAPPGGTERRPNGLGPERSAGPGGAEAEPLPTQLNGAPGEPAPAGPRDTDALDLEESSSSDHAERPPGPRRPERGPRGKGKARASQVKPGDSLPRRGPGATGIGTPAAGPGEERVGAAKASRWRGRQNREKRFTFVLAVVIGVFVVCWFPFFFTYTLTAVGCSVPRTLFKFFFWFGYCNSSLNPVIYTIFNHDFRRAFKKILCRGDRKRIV
Put plainly: Eurofins Diversity Panel. The conditions noted are these: hum. It is filed as binding.

Experiment [1] addresses Serotonin (5-Hydroxytryptamine) 5-HT3) (Homo sapiens, UniProt P46098). Put plainly: Eurofins Diversity Panel. The following applies: hum, Conc. 10 μM. It is filed as binding.
A further experiment addresses Adrenergic α1A (Rattus norvegicus, UniProt P43140). Put plainly: Eurofins Diversity Panel. The following applies: Conc. 10 μM. It is filed as binding.
The target in another experiment is BMPR2 (Homo sapiens, UniProt Q13873). Put plainly: KINOMEscan: BMPR2. The conditions noted are these: 1000 nM, read-out: Percent Control. It is filed as binding.
Another experiment addresses IGF1R (Homo sapiens, UniProt P08069). Put plainly: KINOMEscan: IGF1R. It is filed as binding. The following applies: 1000 nM, read-out: Percent Control.
Another experiment concerns the target CSNK2A2 (Homo sapiens, UniProt P19784). Put plainly: KINOMEscan: CSNK2A2. It is filed as binding. The conditions noted are these: 1000 nM, read-out: Percent Control.
In the next experiment the target is FRK (Homo sapiens, UniProt P42685). Put plainly: KINOMEscan: FRK. It is filed as binding. The following applies: 1000 nM, read-out: Percent Control.
The target of the next experiment is ADCK4 (Homo sapiens, UniProt Q96D53). Put plainly: KINOMEscan: ADCK4. It is filed as binding. The conditions noted are these: 1000 nM, read-out: Percent Control.
The subject of a further experiment is MEC-1. Put plainly: MTS proliferation assay. It is filed as cell-based. The following applies: Homo sapiens.
Another experiment has as its target T2, α2B receptor (Homo sapiens, UniProt P18089).
T2 construct: purchased Eurofins
Put plainly: Eurofins Diversity Panel: adrenergic α2B receptor. It is filed as binding.

Results on one compound are retold here after PMC9898036, “VIP152 is a selective CDK9 inhibitor with pre-clinical in vitro and in vivo efficacy in chronic lymphocytic leukemia” (Leukemia, 2022).

Molecules are shown by their SMILES. Read-outs that look alike come from different tables or passages of the source.

Sequence of CDK7 (P50613 whole entry): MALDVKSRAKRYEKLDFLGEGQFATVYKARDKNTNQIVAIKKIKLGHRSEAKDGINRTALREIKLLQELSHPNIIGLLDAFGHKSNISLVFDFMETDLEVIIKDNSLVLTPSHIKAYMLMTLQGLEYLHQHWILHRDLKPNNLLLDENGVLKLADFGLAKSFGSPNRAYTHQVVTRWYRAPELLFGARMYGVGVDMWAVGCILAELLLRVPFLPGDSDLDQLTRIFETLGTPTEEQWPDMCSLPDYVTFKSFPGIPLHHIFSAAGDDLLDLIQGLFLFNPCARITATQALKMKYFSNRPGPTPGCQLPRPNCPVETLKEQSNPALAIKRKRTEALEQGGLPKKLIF
Sequence of CAMK1D (Q8IU85 whole entry): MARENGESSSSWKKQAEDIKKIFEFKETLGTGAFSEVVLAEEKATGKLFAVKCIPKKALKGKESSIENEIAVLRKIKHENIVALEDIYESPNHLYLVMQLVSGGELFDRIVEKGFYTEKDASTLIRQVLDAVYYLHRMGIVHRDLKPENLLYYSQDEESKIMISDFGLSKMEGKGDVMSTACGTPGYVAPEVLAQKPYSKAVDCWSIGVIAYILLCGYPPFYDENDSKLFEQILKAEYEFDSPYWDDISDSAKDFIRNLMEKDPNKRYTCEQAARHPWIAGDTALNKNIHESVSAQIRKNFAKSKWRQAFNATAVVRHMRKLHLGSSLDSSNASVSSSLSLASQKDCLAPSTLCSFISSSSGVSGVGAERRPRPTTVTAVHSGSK
Sequence of BMPR2 (Q13873 27-1038): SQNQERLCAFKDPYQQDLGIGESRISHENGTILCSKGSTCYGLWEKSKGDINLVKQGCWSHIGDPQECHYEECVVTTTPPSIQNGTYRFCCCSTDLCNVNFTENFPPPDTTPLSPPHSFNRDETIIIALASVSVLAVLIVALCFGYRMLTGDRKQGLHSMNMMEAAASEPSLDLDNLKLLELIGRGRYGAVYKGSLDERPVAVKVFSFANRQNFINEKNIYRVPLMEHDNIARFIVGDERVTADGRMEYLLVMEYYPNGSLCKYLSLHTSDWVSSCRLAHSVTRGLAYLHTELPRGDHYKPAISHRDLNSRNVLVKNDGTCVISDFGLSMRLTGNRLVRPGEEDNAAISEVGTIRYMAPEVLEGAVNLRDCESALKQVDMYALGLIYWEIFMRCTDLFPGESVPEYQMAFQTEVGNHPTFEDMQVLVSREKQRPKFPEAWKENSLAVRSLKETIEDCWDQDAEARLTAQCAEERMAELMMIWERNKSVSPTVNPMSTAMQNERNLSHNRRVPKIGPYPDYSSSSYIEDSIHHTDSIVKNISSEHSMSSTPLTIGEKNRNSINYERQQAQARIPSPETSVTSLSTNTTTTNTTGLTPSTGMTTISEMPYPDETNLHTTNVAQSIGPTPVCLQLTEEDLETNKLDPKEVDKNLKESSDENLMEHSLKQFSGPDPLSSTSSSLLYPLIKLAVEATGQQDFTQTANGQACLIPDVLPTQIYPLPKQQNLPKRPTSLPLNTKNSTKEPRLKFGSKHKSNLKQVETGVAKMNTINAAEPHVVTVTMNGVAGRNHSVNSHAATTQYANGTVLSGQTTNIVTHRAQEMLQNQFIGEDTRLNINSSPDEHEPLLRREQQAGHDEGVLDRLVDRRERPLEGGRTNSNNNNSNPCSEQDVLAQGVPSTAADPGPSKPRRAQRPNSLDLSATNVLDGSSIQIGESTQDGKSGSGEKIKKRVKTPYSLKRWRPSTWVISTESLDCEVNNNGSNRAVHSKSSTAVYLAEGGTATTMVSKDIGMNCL
Sequence of EPHA4 (P54764 20-986): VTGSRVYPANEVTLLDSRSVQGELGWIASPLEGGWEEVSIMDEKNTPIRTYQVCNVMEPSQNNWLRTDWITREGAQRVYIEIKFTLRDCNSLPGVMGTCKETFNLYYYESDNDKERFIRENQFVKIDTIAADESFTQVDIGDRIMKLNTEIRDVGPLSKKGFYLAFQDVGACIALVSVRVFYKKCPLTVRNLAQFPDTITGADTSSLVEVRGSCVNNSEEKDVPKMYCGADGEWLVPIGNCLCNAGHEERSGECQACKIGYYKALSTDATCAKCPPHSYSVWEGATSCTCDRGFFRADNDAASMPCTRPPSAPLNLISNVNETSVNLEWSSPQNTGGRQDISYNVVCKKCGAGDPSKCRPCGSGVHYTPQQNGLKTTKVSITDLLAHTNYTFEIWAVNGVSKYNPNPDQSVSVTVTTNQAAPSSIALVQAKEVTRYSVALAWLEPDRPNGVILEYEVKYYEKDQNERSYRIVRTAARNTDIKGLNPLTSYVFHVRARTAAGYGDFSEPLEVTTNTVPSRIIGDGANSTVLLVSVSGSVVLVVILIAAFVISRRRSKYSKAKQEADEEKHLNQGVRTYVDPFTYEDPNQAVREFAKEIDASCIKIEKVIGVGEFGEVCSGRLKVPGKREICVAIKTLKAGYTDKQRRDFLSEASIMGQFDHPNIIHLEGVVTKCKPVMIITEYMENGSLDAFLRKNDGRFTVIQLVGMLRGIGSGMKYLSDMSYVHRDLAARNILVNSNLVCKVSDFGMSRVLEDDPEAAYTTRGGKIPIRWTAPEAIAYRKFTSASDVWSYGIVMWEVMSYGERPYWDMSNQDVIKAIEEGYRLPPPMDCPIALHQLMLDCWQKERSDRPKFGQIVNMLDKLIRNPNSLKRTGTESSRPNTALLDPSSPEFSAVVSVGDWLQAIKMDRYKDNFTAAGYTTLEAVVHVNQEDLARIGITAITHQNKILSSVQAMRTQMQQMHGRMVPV
Sequence of ADCK4 (Q96D53 whole entry): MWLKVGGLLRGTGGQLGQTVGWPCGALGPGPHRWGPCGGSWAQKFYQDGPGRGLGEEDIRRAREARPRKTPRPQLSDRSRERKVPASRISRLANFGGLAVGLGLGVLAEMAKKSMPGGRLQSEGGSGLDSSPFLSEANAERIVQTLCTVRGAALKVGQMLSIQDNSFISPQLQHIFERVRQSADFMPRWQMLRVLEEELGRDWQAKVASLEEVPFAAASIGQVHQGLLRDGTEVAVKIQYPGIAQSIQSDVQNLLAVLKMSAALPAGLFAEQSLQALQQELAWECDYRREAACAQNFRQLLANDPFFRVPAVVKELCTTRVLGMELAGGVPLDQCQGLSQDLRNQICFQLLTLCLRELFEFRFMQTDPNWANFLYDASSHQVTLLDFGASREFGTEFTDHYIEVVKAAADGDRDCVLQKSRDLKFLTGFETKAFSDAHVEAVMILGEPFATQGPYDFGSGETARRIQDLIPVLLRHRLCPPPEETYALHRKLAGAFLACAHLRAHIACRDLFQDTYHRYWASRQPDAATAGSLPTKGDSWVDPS
Sequence of Adrenergic α1A (P43140 whole entry): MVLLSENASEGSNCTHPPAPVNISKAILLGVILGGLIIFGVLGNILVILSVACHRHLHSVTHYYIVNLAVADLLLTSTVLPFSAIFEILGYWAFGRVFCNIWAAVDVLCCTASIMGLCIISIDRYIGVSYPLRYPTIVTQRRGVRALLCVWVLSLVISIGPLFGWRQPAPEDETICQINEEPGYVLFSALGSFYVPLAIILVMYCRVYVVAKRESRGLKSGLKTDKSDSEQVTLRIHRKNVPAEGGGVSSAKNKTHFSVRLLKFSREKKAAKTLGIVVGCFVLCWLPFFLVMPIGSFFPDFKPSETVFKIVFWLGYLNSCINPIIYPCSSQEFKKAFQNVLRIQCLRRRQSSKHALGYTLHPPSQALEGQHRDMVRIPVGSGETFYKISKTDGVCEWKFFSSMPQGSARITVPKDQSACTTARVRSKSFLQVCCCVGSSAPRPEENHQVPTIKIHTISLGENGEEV
Sequence of IGF1R (P08069 31-1367): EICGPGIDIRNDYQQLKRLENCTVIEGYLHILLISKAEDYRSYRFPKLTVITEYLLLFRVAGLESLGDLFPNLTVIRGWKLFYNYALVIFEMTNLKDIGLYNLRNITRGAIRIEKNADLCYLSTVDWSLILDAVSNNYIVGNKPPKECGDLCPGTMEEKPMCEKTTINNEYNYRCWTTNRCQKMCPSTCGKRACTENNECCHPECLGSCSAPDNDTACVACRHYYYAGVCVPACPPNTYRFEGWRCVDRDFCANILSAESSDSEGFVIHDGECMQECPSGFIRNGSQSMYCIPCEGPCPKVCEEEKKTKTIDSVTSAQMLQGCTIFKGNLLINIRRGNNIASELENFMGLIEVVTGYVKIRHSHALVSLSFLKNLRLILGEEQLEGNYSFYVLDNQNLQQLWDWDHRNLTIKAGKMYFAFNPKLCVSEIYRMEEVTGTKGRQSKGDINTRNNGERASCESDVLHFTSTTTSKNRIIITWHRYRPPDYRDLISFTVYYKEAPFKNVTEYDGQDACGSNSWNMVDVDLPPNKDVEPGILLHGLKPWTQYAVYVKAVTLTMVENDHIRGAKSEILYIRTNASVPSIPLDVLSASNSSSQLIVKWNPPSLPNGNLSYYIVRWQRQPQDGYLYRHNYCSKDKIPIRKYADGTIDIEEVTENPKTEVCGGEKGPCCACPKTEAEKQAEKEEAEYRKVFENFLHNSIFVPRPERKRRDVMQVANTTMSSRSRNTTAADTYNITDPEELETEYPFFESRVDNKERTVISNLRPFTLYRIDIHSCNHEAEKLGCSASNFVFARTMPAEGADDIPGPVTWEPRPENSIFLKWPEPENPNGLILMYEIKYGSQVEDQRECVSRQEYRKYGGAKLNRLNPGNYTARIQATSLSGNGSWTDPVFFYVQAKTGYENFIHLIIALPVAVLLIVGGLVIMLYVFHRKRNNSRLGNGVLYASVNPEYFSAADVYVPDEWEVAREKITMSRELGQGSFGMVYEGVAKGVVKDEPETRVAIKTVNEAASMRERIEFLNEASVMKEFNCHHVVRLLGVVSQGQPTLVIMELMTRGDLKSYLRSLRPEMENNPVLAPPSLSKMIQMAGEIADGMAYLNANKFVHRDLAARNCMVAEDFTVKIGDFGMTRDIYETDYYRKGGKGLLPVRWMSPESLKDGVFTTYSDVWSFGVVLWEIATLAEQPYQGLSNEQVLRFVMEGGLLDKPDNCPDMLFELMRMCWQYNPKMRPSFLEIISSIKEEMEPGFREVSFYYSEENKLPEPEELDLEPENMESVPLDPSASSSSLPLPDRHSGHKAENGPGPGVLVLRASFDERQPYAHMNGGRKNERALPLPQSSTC

Consider `COc1cc(F)ccc1-c1cc(Nc2cc(CS(C)(=N)=O)ccn2)ncc1F` (stereo not drawn) [VIP152], for which the “% Inh.” value with Phorbol Ester is 8%. The inhibition at 10 µM against Dopamine D2S is 15%; against Adrenergic α2A (Conc. 10 μM) it was 100%; in experiment [1], -3%; on Adrenergic α1A, 34%. Moreover, the remaining binding at 1 µM turned out to be 94% at EPHA4; 97% at ADCK3; 99% on CAMK1D; 2.1% on CDK7 (CDK7, 1000 nM, read-out: Percent Control); 93% on BMPR2; 100% at IGF1R. Further, the remaining binding at 1 µM on CSNK2A2 came to 69%; at FRK it was 47%; at ADCK4 it was 82%. Also, the remaining binding at 0.1 µM on SIK was 100%; at CDK7 (CDK7, 100 nM, read-out: Percent Control) it was 36%. In addition, the inhibition at 0.1 µM against CDK7 (100 nM) was 64%. Also, the inhibition at 1 µM against CDK7 (1000 nM) was 97.9%. Moreover, the IC50 on Adrenergic α2A is 64 nM; in the experiment with MEC-1 (MEC1, 24, 48, and 72 h, read-out: proliferation IC50), 150 to 1000 nM; with MEC-1 (MEC1, two-hour drugging followed by washout, MTS after 72 h, read-out: 50% growth inhibition), 1700 nM; at α2B receptor it was 1180 nM. The same compound registered an inhibition constant (Ki) at Adrenergic α2A of 32 nM. In addition, the nH at Adrenergic α2A came out at 0.94.
